Experimental data from patent publication US20130216614A1, “IMMUNOGENIC COMPOSITIONS AND METHODS FOR TREATING NUEROLOGIC DISORDERS” (Glaxosmithkline Biologicals S.A., priority 2010, published 2013).

Assays:
TLR2 mRNA = assay: In situ hybridization of TLR2 transcript in brain after peripheral injection; format: in vivo, C57BL/6J mice; details: 24 hr after single i.p. injection; CRX compounds 20 μg/mouse, 3D MPL 50 μg/mouse
From the text: In order to evaluate the innate activation within the brain, we have performed in situ hybridization 24 hr following the systemic injection of either 3D MPL, CRX524 or CRX527 or CRX601 using the intra peritoneal route.
Specifically GSK Bio injected different compositions in C57BL/6J mice for evaluating the potency of those adjuvants after 24 hrs of peripheral injection to trigger microglial cell activation in the brain. Animal study groups were:
GSK Bio performed the injections in C57BL6 mice at the Centre de biologie expérimentale de I'INRS-IAF under an IACUC approved protocol. Twenty four hours after the injections, mice were deeply anesthetized via an intraperitoneal injection of a mixture of ketamine hydrochloride and xylazine and then perfused intracardially with ice-cold 0.9% saline, followed by 4% paraformaldehyde (PFA) in a 0.1 M borax buffer, pH 9.5, at 4° C. Brains were rapidly removed from skulls, postfixed in PFA 1-3 d at 4° C. and sent to the CHUL. They were then cryoprotected in 10% sucrose diluted in PFA overnight. The frozen brains were sectioned into 25-μm-thick coronal sections using a microtome (Reichert-Jung, Cambridge Instruments Company), and slices were collected in a cold cryoprotectant solution (0.05 M sodium phosphate buffer, pH 7.3, 30% ethylene glycol, and 20% glycerol, stored at −20° C.).
Every 12th section of brain slices, starting from the end of the olfactory bulb to the end of the cerebral cortex, was mounted on Colorfrost/Plus microscope slides (Fisher Scientific). In situ hybridization histochemical localization of TLR2 transcript was performed using ^35S-labeled cRNA probe. […]
Dual labeling combining immunocytochemistry and in situ hybridization was performed as described previously (Laflamme and Rivest, 2001; Nadeau and Rivest, 2000 infra) to localize TLR2 transcripts in microglia (iba-1 staining). […] The images depicted by the different panels are representative of the signal detected on the slides for each group of mice.

monomeric Aβ = assay: Immunoblot of monomeric Aβ in brain protein fractions; format: in vivo, mice; details: anti Aβ1-16 antibody, vs PBS
Experimental: Proteins from hemi-forebrains were extracted using a modified method of the procedure published by Lesné et al (Lesne et al., 2006). All manipulations were done on ice to minimize protein degradation. One hemi-forebrain was placed in a 1 ml syringe with a 20 G needle. 500 l of buffer A (50 mM Tris-HCl pH 7.6, 0.01% NP-40, 150 mM NaCl, 2 mM EDTA, 0.1% SDS, 1 mM phenylmethylsulfonyl fluoride (PMSF), protease inhibitor cocktail) were added and 10 up and down were made to homogenize the tissue, followed by a 5 minutes centrifugation at 3 000 RPM at 4° C. The supernatant (extracellular proteins enriched fraction) was then collected and frozen at −80° C. […] Protein concentration of each fraction was determined using the Quantipro BCA assay kit (Sigma) according to the manufacturer protocol.
For total Aβ detection, 10-30 μg of extracellular, cytoplasmic and membrane protein fractions were separated on a precast 10-20% SDS polyacrylamide Tris-Tricine gel (Bio-Rad). Separated proteins were then transferred onto polyvinylidene fluoride (PVDF) membranes (PerkinElmer Life and Analytical Sciences) and detected by Western blotting. […]
Quantification was done by determining integrative density of the bands using a gel imaging system (scanner Agfa Arcus II; NIHImage J software version 1.32j) and background values were removed. […] Results are expressed as mean±SEM. […]

3-O-desacyl-4′-monophosphoryl lipid A [3D MPL]
TLR2 mRNA activation in ventricular regions and choroid plexus (TLR2 mRNA): lesser extent
monomeric Aβ in extra-cellular enriched fractions from brains (monomeric Aβ): reduction

CCCCCCCCCCC[C@H](CC(=O)N[C@H]1[C@H](OC[C@H](NC(=O)C[C@@H](CCCCCCCCCCC)OCCCCCCCCCC)C(=O)O)O[C@H](CO)[C@@H](OP(=O)(O)O)[C@@H]1OC(=O)C[C@@H](CCCCCCCCCCC)OCCCCCCCCCC)OCCCCCCCCCC [CRX601]
TLR2 mRNA activation in ventricular regions and choroid plexus (TLR2 mRNA): clearly activated

CCCCCCCCCCC[C@H](CC(=O)N[C@H]1[C@H](OC[C@H](NC(=O)C[C@@H](CCCCCCCCCCC)OC(=O)CCCCCCCCC)C(=O)O)O[C@H](CO)[C@@H](OP(=O)(O)O)[C@@H]1OC(=O)C[C@@H](CCCCCCCCCCC)OC(=O)CCCCCCCCC)OC(=O)CCCCCCCCC [CRX527]
TLR2 mRNA activation in ventricular regions and choroid plexus (TLR2 mRNA): clearly activated
